Experimental data published in ChEMBL document CHEMBL4680144, “N-thiadiazole-4-hydroxy-2-quinolone-3-carboxamides bearing heteroaromatic rings as novel antibacterial agents: Design, synthesis, biological evaluation and target identification” (Eur J Med Chem, 2020).
≈ marks a conversion by molar mass, not a printed value.

Tested on: Staphylococcus aureus
Experiment: Antibacterial activity against wild type methicillin-sensitive Staphylococcus aureus ATCC 29213 assessed as inhibition of bacterial growth incubated for 18 to 24 hrs by broth microdilution method
Format: functional
Conditions: time 18-24 hrs

| MIC [µg/mL] | SMILES |
| --- | --- |
| 3.12 (≈ 7.83 µM) | CCn1c(=O)c(C(=O)Nc2nnc(-c3cccs3)s2)c(O)c2ccccc21 |
| 3.12 (≈ 7.16 µM) | CCn1c(=O)c(C(=O)Nc2nnc(-c3ccc(N(C)C)cc3)s2)c(O)c2ccccc21 |
| 3.12 (≈ 7.39 µM) | CCn1c(=O)c(C(=O)Nc2nnc(-c3ccccc3OC)s2)c(O)c2ccccc21 |
| 50 (≈ 114 µM) | CCn1c(=O)c(C(=O)Nc2nnc(-c3ccc([N+](=O)[O-])cc3)s2)c(O)c2ccccc21 |
| 3.12 (≈ 7.87 µM) | CCn1c(=O)c(C(=O)Nc2nnc(-c3ccn(C)n3)s2)c(O)c2ccccc21 |
| 1.56 (≈ 3.97 µM) | CCn1c(=O)c(C(=O)Nc2nnc(-c3ccncc3)s2)c(O)c2ccccc21 |
| 6.25 (≈ 15.4 µM) | CCn1c(=O)c(C(=O)Nc2nnc(-c3ccc(C)cc3)s2)c(O)c2ccccc21 |
| 1.56 (≈ 3.69 µM) | CCn1c(=O)c(C(=O)Nc2nnc(-c3cccc(OC)c3)s2)c(O)c2ccccc21 |

| SMILES | MIC [µg/mL] |
| --- | --- |
| CCCc1nnc(NC(=O)c2c(O)c3ccccc3n(CC)c2=O)s1 | 0.39 (≈ 1.09 µM) |

Tested on: Staphylococcus aureus
Experiment: Antibacterial activity against methicillin-resistant Staphylococcus aureus clinical isolate 15-1 assessed as inhibition of bacterial growth incubated for 18 to 24 hrs by broth microdilution method
Format: functional
Conditions: time 18-24 hrs

| SMILES | MIC [µg/mL] |
| --- | --- |
| CCCc1nnc(NC(=O)c2c(O)c3ccccc3n(CC)c2=O)s1 | 2 (≈ 5.58 µM) |

Tested on: Staphylococcus aureus
Experiment: Antibacterial activity against methicillin-resistant Staphylococcus aureus clinical isolate 15-2 assessed as inhibition of bacterial growth incubated for 18 to 24 hrs by broth microdilution method
Format: functional
Conditions: time 18-24 hrs

| SMILES | MIC [µg/mL] |
| --- | --- |
| CCCc1nnc(NC(=O)c2c(O)c3ccccc3n(CC)c2=O)s1 | 2 (≈ 5.58 µM) |

Tested on: Staphylococcus aureus
Experiment: Antibacterial activity against methicillin-resistant Staphylococcus aureus clinical isolate 15-3 assessed as inhibition of bacterial growth incubated for 18 to 24 hrs by broth microdilution method
Format: functional
Conditions: time 18-24 hrs

| SMILES | MIC [µg/mL] |
| --- | --- |
| CCCc1nnc(NC(=O)c2c(O)c3ccccc3n(CC)c2=O)s1 | 2 (≈ 5.58 µM) |

Tested on: Staphylococcus aureus
Experiment: Antibacterial activity against methicillin-resistant Staphylococcus aureus clinical isolate 15-6 assessed as inhibition of bacterial growth incubated for 18 to 24 hrs by broth microdilution method
Format: functional
Conditions: time 18-24 hrs

| SMILES | MIC [µg/mL] |
| --- | --- |
| CCCc1nnc(NC(=O)c2c(O)c3ccccc3n(CC)c2=O)s1 | 2 (≈ 5.58 µM) |

Tested on: Staphylococcus aureus
Experiment: Antibacterial activity against methicillin-resistant Staphylococcus aureus clinical isolate 15-7 assessed as inhibition of bacterial growth incubated for 18 to 24 hrs by broth microdilution method
Format: functional
Conditions: time 18-24 hrs

| SMILES | MIC [µg/mL] |
| --- | --- |
| CCCc1nnc(NC(=O)c2c(O)c3ccccc3n(CC)c2=O)s1 | 4 (≈ 11.2 µM) |

Tested on: Staphylococcus aureus
Experiment: Antibacterial activity against methicillin-resistant Staphylococcus aureus clinical isolate 15-8 assessed as inhibition of bacterial growth incubated for 18 to 24 hrs by broth microdilution method
Format: functional
Conditions: time 18-24 hrs

| SMILES | MIC [µg/mL] |
| --- | --- |
| CCCc1nnc(NC(=O)c2c(O)c3ccccc3n(CC)c2=O)s1 | 2 (≈ 5.58 µM) |

Tested on: Staphylococcus aureus
Experiment: Antibacterial activity against methicillin-resistant Staphylococcus aureus clinical isolate 15-9 assessed as inhibition of bacterial growth incubated for 18 to 24 hrs by broth microdilution method
Format: functional
Conditions: time 18-24 hrs

| SMILES | MIC [µg/mL] |
| --- | --- |
| CCCc1nnc(NC(=O)c2c(O)c3ccccc3n(CC)c2=O)s1 | 4 (≈ 11.2 µM) |

Tested on: Staphylococcus aureus
Experiment: Antibacterial activity against methicillin resistant and vancomycin-intermediate sensitive Staphylococcus aureus ATCC 700699 assessed as inhibition of bacterial growth incubated for 18 to 24 hrs by broth microdilution method
Format: functional
Conditions: time 18-24 hrs

| SMILES | MIC [µg/mL] |
| --- | --- |
| CCCc1nnc(NC(=O)c2c(O)c3ccccc3n(CC)c2=O)s1 | 4 (≈ 11.2 µM) |

Tested on: Staphylococcus aureus
Experiment: Antibacterial activity against methicillin resistant and vancomycin-intermediate sensitive Staphylococcus aureus ATCC 700788 assessed as inhibition of bacterial growth incubated for 18 to 24 hrs by broth microdilution method
Format: functional
Conditions: time 18-24 hrs

| SMILES | MIC [µg/mL] |
| --- | --- |
| CCCc1nnc(NC(=O)c2c(O)c3ccccc3n(CC)c2=O)s1 | 4 (≈ 11.2 µM) |

Tested on: Staphylococcus epidermidis
Experiment: Antibacterial activity against methicillin-sensitive Staphylococcus epidermidis clinical isolate 15-3 assessed as inhibition of bacterial growth incubated for 18 to 24 hrs by broth microdilution method
Format: functional
Conditions: time 18-24 hrs

| SMILES | MIC [µg/mL] |
| --- | --- |
| CCCc1nnc(NC(=O)c2c(O)c3ccccc3n(CC)c2=O)s1 | 2 (≈ 5.58 µM) |

Tested on: Staphylococcus epidermidis
Experiment: Antibacterial activity against methicillin-sensitive Staphylococcus epidermidis clinical isolate 15-4 assessed as inhibition of bacterial growth incubated for 18 to 24 hrs by broth microdilution method
Format: functional
Conditions: time 18-24 hrs

| SMILES | MIC [µg/mL] |
| --- | --- |
| CCCc1nnc(NC(=O)c2c(O)c3ccccc3n(CC)c2=O)s1 | 2 (≈ 5.58 µM) |

Tested on: Staphylococcus epidermidis
Experiment: Antibacterial activity against methicillin-resistant Staphylococcus epidermidis clinical isolate 15-1 assessed as inhibition of bacterial growth incubated for 18 to 24 hrs by broth microdilution method
Format: functional
Conditions: time 18-24 hrs

| SMILES | MIC [µg/mL] |
| --- | --- |
| CCCc1nnc(NC(=O)c2c(O)c3ccccc3n(CC)c2=O)s1 | 2 (≈ 5.58 µM) |

Tested on: Staphylococcus epidermidis
Experiment: Antibacterial activity against methicillin-resistant Staphylococcus epidermidis clinical isolate 15-2 assessed as inhibition of bacterial growth incubated for 18 to 24 hrs by broth microdilution method
Format: functional
Conditions: time 18-24 hrs

| SMILES | MIC [µg/mL] |
| --- | --- |
| CCCc1nnc(NC(=O)c2c(O)c3ccccc3n(CC)c2=O)s1 | 4 (≈ 11.2 µM) |

Tested on: Staphylococcus epidermidis
Experiment: Antibacterial activity against methicillin-resistant Staphylococcus epidermidis clinical isolate 15-3 assessed as inhibition of bacterial growth incubated for 18 to 24 hrs by broth microdilution method
Format: functional
Conditions: time 18-24 hrs

| SMILES | MIC [µg/mL] |
| --- | --- |
| CCCc1nnc(NC(=O)c2c(O)c3ccccc3n(CC)c2=O)s1 | 2 (≈ 5.58 µM) |

Tested on: Enterococcus faecalis
Experiment: Antibacterial activity against Enterococcus faecalis clinical isolate 15-1 assessed as inhibition of bacterial growth incubated for 18 to 24 hrs by broth microdilution method
Format: functional
Conditions: time 18-24 hrs

| SMILES | MIC [µg/mL] |
| --- | --- |
| CCCc1nnc(NC(=O)c2c(O)c3ccccc3n(CC)c2=O)s1 | 4 (≈ 11.2 µM) |

Tested on: Enterococcus faecalis
Experiment: Antibacterial activity against Enterococcus faecalis clinical isolate 15-2 assessed as inhibition of bacterial growth incubated for 18 to 24 hrs by broth microdilution method
Format: functional
Conditions: time 18-24 hrs

| SMILES | MIC [µg/mL] |
| --- | --- |
| CCCc1nnc(NC(=O)c2c(O)c3ccccc3n(CC)c2=O)s1 | 4 (≈ 11.2 µM) |

Tested on: Enterococcus faecium
Experiment: Antibacterial activity against Enterococcus faecium clinical isolate 15-1 assessed as inhibition of bacterial growth incubated for 18 to 24 hrs by broth microdilution method
Format: functional
Conditions: time 18-24 hrs

| SMILES | MIC [µg/mL] |
| --- | --- |
| CCCc1nnc(NC(=O)c2c(O)c3ccccc3n(CC)c2=O)s1 | 2 (≈ 5.58 µM) |

Tested on: Enterococcus faecium
Experiment: Antibacterial activity against Enterococcus faecium clinical isolate 15-2 assessed as inhibition of bacterial growth incubated for 18 to 24 hrs by broth microdilution method
Format: functional
Conditions: time 18-24 hrs

| SMILES | MIC [µg/mL] |
| --- | --- |
| CCCc1nnc(NC(=O)c2c(O)c3ccccc3n(CC)c2=O)s1 | 4 (≈ 11.2 µM) |

Tested on: Enterococcus faecalis
Experiment: Antibacterial activity against vancomycin-resistant Enterococcus faecalis ATCC 51299 assessed as inhibition of bacterial growth incubated for 18 to 24 hrs by broth microdilution method
Format: functional
Conditions: time 18-24 hrs

| SMILES | MIC [µg/mL] |
| --- | --- |
| CCCc1nnc(NC(=O)c2c(O)c3ccccc3n(CC)c2=O)s1 | 8 (≈ 22.3 µM) |

Tested on: Enterococcus faecalis
Experiment: Antibacterial activity against vancomycin-resistant Enterococcus faecalis ATCC 700802 assessed as inhibition of bacterial growth incubated for 18 to 24 hrs by broth microdilution method
Format: functional
Conditions: time 18-24 hrs

| SMILES | MIC [µg/mL] |
| --- | --- |
| CCCc1nnc(NC(=O)c2c(O)c3ccccc3n(CC)c2=O)s1 | 8 (≈ 22.3 µM) |

Tested on: Enterococcus faecalis
Experiment: Antibacterial activity against vancomycin-resistant Enterococcus faecalis ATCC 51575 assessed as inhibition of bacterial growth incubated for 18 to 24 hrs by broth microdilution method
Format: functional
Conditions: time 18-24 hrs

| SMILES | MIC [µg/mL] |
| --- | --- |
| CCCc1nnc(NC(=O)c2c(O)c3ccccc3n(CC)c2=O)s1 | 8 (≈ 22.3 µM) |

Tested on: not listed separately
Experiment: Inhibition of Staphylococcus aureus Gyrase B using linear pBR322 DNA as substrate incubated for 30 mins in presence of ATP by ADP-Glo assay
Conditions: not given

| IC50 [nM] | SMILES |
| --- | --- |
| 220 | CCn1c(=O)c(C(=O)Nc2nnc(-c3cccs3)s2)c(O)c2ccccc21 |
| 2660 | CCn1c(=O)c(C(=O)Nc2nnc(-c3ccc(N(C)C)cc3)s2)c(O)c2ccccc21 |
| 760 | CCn1c(=O)c(C(=O)Nc2nnc(-c3ccccc3OC)s2)c(O)c2ccccc21 |
| 1610 | CCn1c(=O)c(C(=O)Nc2nnc(-c3ccc([N+](=O)[O-])cc3)s2)c(O)c2ccccc21 |
| 490 | CCn1c(=O)c(C(=O)Nc2nnc(-c3ccn(C)n3)s2)c(O)c2ccccc21 |
| 240 | CCn1c(=O)c(C(=O)Nc2nnc(-c3ccncc3)s2)c(O)c2ccccc21 |
| 640 | CCn1c(=O)c(C(=O)Nc2nnc(-c3ccc(C)cc3)s2)c(O)c2ccccc21 |
| 2170 | CCn1c(=O)c(C(=O)Nc2nnc(-c3cccc(OC)c3)s2)c(O)c2ccccc21 |

| SMILES | IC50 [nM] |
| --- | --- |
| CCCc1nnc(NC(=O)c2c(O)c3ccccc3n(CC)c2=O)s1 | 270 |
